Publication PMC3274752 (Cancer discovery, 2011)

What was measured:
[1] = system: SCC lines harboring DDR2 mutations; test: Proliferation and viability of SCC lines harboring DDR2 mutations; assay type: cell-based; conditions: for inhibition of proliferation: SCC lines harboring DDR2 mutations
[2] = system: Ba/F3 cells expressing DDR2 mutations; test: Four-day proliferation of IL-3-independent Ba/F3 cells expressing DDR2 mutants; assay type: cell-based; conditions: for killing / proliferation of DDR2-transformed Ba/F3 cells: IL-3-independent Ba/F3 cells expressing DDR2 mutations, single agent
[3] = system: DDR2-mutant HCC-366 cells; conditions: cited from earlier work
A549 cell line = test: Cell-Titer-Glo proliferation, six days, A549; assay type: cell-based; conditions: Homo sapiens, A549, read-out: calculated IC50, proliferation
[4] = system: NCI-H2286 xenograft tumors; test: Xenograft of NCI-H2286 in athymic nude mice; assay type: in vivo; conditions: 50 mg/kg oral gavage, two weeks
[5] = system: NCI-H1703 xenograft tumors; test: Xenograft of NCI-H1703 in athymic nude mice; assay type: in vivo; conditions: 50 mg/kg oral gavage, two weeks
[6] = system: NIH-3T3 cells expressing DDR2 L63V; test: Soft agar colony formation, NIH-3T3 expressing DDR2 L63V; assay type: cell-based; conditions: single application at the time of plating
[7] = system: Ba/F3 cells, vector control grown in the presence of IL-3; test: Four-day proliferation of control Ba/F3 cells grown in IL-3; assay type: cell-based; conditions: Mus musculus, BaF3, 96 h, read-out: mean calculated IC50 for the control
NCI-H1703 SCC cell line = conditions: NCI-H1703, PDGFRA amplification, positive control
[8] = cited from earlier work
[9] = system: Ba/F3 cells expressing DDR2 L63V; assay type: cell-based; conditions: Ba/F3 DDR2 L63V grown in 50 nM nilotinib

## Cc1ccc(C(=O)Nc2ccc(CN3CCN(C)CC3)c(C(F)(F)F)c2)cc1C#Cc1cnc2cccnn12 [AP24534]
[1]
  inhibition of proliferation: inhibited the proliferation of SCC lines harboring DDR2 mutations
[2]
  killing / proliferation of DDR2-transformed Ba/F3 cells: effective in killing

## C#Cc1cccc(Nc2ncnc3cc(OCCOC)c(OCCOC)cc23)c1 [erlotinib]
[1]; HCC-366 and NCI-H2286, initial experiments, data not shown
  sensitivity relative to dasatinib: at least ten-fold less than dasatinib
[3]; DDR2 mutant HCC-366 cell line
  GI50: 0.99 µM

## Cc1cn(-c2cc(NC(=O)c3ccc(C)c(Nc4nccc(-c5cccnc5)n4)c3)cc(C(F)(F)F)c2)cn1 [nilotinib]
[1]
  inhibition of proliferation: inhibited the proliferation of SCC lines harboring DDR2 mutations
[2]; 50 nM, wild-type Ba/F3 cells or Ba/F3 cells expressing DDR2 mutations
  effect on proliferation at 50 nM: little effect on proliferation
[2]
  killing / proliferation of DDR2-transformed Ba/F3 cells: modest activity

## Cc1nc(Nc2ncc(C(=O)Nc3c(C)cccc3Cl)s2)cc(N2CCN(CCO)CC2)n1 [dasatinib]
A549 cell line
  IC50: 7.4 µM
[1]; 48 hours after addition of drug, data not shown
  cellular annexin V staining: increase in cellular annexin V staining
[1]; DDR2 mutant cell lines
  cell death versus cell cycle arrest by trypan blue exclusion: cell death as opposed to cell cycle arrest
[4]
  tumor size: decrease in tumor size
[5]
  tumor size: decrease in tumor size
[6]
  colony formation in soft agar: Colony formation could be inhibited
[2]; Mus musculus, BaF3, 96 h, read-out: mean calculated IC50 for the mutants
  IC50: 0.68 µM
[7]
  IC50: 30 µM
NCI-H1703 SCC cell line
  sensitivity in proliferation assay: sensitive to both drugs
[3]; HCC-366
  rank of sensitivity among 83 NSCLC cell lines: most sensitive squamous cell lung cancer line to dasatinib
[8]
  toxicity in patients: myelosuppression and the development of pleural and pericardial effusions

## CN1CCN(CCOc2cc(OC3CCOCC3)c3c(Nc4c(Cl)ccc5c4OCO5)ncnc3c2)CC1 [AZD0530]
[2]
  killing / proliferation of DDR2-transformed Ba/F3 cells: modest effect on the proliferation
[9]
  proliferation on addition of AZD0530 to 50 nM nilotinib: marked reduction in proliferation
